Data: PubChem BioAssay (NCI)
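Growth conditions: 96-well plates. Treatment: test compound, 48 hours, 5 concentrations. Analysis: linear interpolation between bracketing concentrations; unreached endpoints set to highest concentration. TGI marks complete inhibition of growth.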

Experiments:
Test in all cases: NCI-60 cell line screen, 48 h
786-0 renal = system: 786-0 renal
A498 renal = system: A498 renal
A549 NSCLC = system: A549 NSCLC
ACHN renal = system: ACHN renal
BT-549 breast = system: BT-549 breast
CAKI-1 renal = system: CAKI-1 renal
CCRF-CEM leukemia = system: CCRF-CEM leukemia
COLO 205 colon = system: COLO 205 colon
DLD-1 colon = system: DLD-1 colon
DMS 114 small cell lung = system: DMS 114 small cell lung
DMS 273 small cell lung = system: DMS 273 small cell lung
DU-145 prostate = system: DU-145 prostate
EKVX NSCLC = system: EKVX NSCLC
HCC-2998 colon = system: HCC-2998 colon
HCT-116 colon = system: HCT-116 colon
HCT-15 colon = system: HCT-15 colon
HOP-18 NSCLC = system: HOP-18 NSCLC
HOP-62 NSCLC = system: HOP-62 NSCLC
HOP-92 NSCLC = system: HOP-92 NSCLC
HT29 colon = system: HT29 colon
IGROV1 ovarian = system: IGROV1 ovarian
K-562 leukemia = system: K-562 leukemia
KM12 colon = system: KM12 colon
KM20L2 colon = system: KM20L2 colon
LOX IMVI melanoma = system: LOX IMVI melanoma
LXFL 529 NSCLC = system: LXFL 529 NSCLC
M14 melanoma = system: M14 melanoma
M19-MEL melanoma = system: M19-MEL melanoma
MALME-3M melanoma = system: MALME-3M melanoma
MCF7 breast = system: MCF7 breast
MDA-MB-231 breast = system: MDA-MB-231 breast
MDA-MB-435 = system: MDA-MB-435
MDA-N = system: MDA-N
NCI-H226 lung = system: NCI-H226 lung
NCI-H23 lung = system: NCI-H23 lung
NCI-H460 lung = system: NCI-H460 lung
NCI-H522 lung = system: NCI-H522 lung
NCI/ADR-RES ovarian = system: NCI/ADR-RES ovarian
OVCAR-3 ovarian = system: OVCAR-3 ovarian
OVCAR-4 ovarian = system: OVCAR-4 ovarian
OVCAR-5 ovarian = system: OVCAR-5 ovarian
OVCAR-8 ovarian = system: OVCAR-8 ovarian
PC-3 prostate = system: PC-3 prostate
RPMI-8226 leukemia = system: RPMI-8226 leukemia
RXF 393 renal = system: RXF 393 renal
SF-268 CNS = system: SF-268 CNS
SF-295 CNS = system: SF-295 CNS
SF-539 CNS = system: SF-539 CNS
SK-MEL-2 melanoma = system: SK-MEL-2 melanoma
SK-MEL-28 melanoma = system: SK-MEL-28 melanoma
SK-MEL-5 melanoma = system: SK-MEL-5 melanoma
SK-OV-3 ovarian = system: SK-OV-3 ovarian
SN12C renal = system: SN12C renal
SNB-19 CNS = system: SNB-19 CNS
SNB-75 CNS = system: SNB-75 CNS
SNB-78 CNS = system: SNB-78 CNS
SR leukemia = system: SR leukemia
SW-620 colon = system: SW-620 colon
T-47D breast = system: T-47D breast
TK-10 renal = system: TK-10 renal
U251 CNS = system: U251 CNS
UACC-257 melanoma = system: UACC-257 melanoma
UACC-62 melanoma = system: UACC-62 melanoma
UO-31 renal = system: UO-31 renal
XF 498 CNS = system: XF 498 CNS
HL-60(TB) leukemia = system: HL-60(TB) leukemia
MOLT-4 leukemia = system: MOLT-4 leukemia
RXF-631 renal = system: RXF-631 renal

C=C1C(=O)OC2C(C)C3C=CC(=O)[C@@]3(C)C(OC(=O)/C(C)=C/C)C1[C@@H]2OC(C)=O (stereo partly specified)
TGI (786-0 renal): 630 nM | TGI (A498 renal): 2810 nM | TGI (A549 NSCLC): 3.8 µM | TGI (ACHN renal): 1680 nM | TGI (BT-549 breast): 682 nM | TGI (CAKI-1 renal): 1610 nM | TGI (CCRF-CEM leukemia): > 28.7 µM | TGI (COLO 205 colon): 0.906 µM | TGI (DLD-1 colon): 1.79 µM | TGI (DMS 114 small cell lung): 2.37 µM | TGI (DMS 273 small cell lung): 1.81 µM | TGI (DU-145 prostate): 3.23 µM | TGI (EKVX NSCLC): 1270 nM | TGI (HCC-2998 colon): 3.2 µM | TGI (HCT-116 colon): 0.769 µM | TGI (HCT-15 colon): 0.782 µM | TGI (HOP-18 NSCLC): 3.28 µM | TGI (HOP-62 NSCLC): 2860 nM | TGI (HOP-92 NSCLC): 1560 nM | TGI (HT29 colon): 1180 nM | TGI (IGROV1 ovarian): 2050 nM | TGI (K-562 leukemia): 16 µM | TGI (KM12 colon): 3.68 µM | TGI (KM20L2 colon): 2990 nM | TGI (LOX IMVI melanoma): 0.521 µM | TGI (LXFL 529 NSCLC): 1.16 µM | TGI (M14 melanoma): 1.96 µM | TGI (M19-MEL melanoma): 1.84 µM | TGI (MALME-3M melanoma): 539 nM | TGI (MCF7 breast): 1370 nM | TGI (MDA-MB-231 breast): 678 nM | TGI (MDA-MB-435): 860 nM | TGI (MDA-N): 738 nM | TGI (NCI-H226 lung): 4.42 µM | TGI (NCI-H23 lung): 1290 nM | TGI (NCI-H460 lung): 1330 nM | TGI (NCI-H522 lung): 0.334 µM | TGI (NCI/ADR-RES ovarian): 730 nM | TGI (OVCAR-3 ovarian): 0.744 µM | TGI (OVCAR-4 ovarian): 2530 nM | TGI (OVCAR-5 ovarian): 3.32 µM | TGI (OVCAR-8 ovarian): 0.628 µM | TGI (PC-3 prostate): 1870 nM | TGI (RPMI-8226 leukemia): 3.16 µM | TGI (RXF 393 renal): 610 nM | TGI (SF-268 CNS): 3.22 µM | TGI (SF-295 CNS): 2810 nM | TGI (SF-539 CNS): 0.987 µM | TGI (SK-MEL-2 melanoma): 1180 nM | TGI (SK-MEL-28 melanoma): 1760 nM | TGI (SK-MEL-5 melanoma): 2780 nM | TGI (SK-OV-3 ovarian): 3.52 µM | TGI (SN12C renal): 1.24 µM | TGI (SNB-19 CNS): 4.13 µM | TGI (SNB-75 CNS): 2980 nM | TGI (SNB-78 CNS): 2800 nM | TGI (SR leukemia): 3.61 µM | TGI (SW-620 colon): 694 nM | TGI (T-47D breast): 2130 nM | TGI (TK-10 renal): 1570 nM | TGI (U251 CNS): 2360 nM | TGI (UACC-257 melanoma): 1660 nM | TGI (UACC-62 melanoma): 810 nM | TGI (UO-31 renal): 2480 nM | TGI (XF 498 CNS): 2530 nM

C[Si](C)(C)C#C[I+]c1ccccc1
TGI (786-0 renal): > 100000 nM | TGI (A498 renal): > 100000 nM | TGI (A549 NSCLC): > 100 µM | TGI (ACHN renal): > 100000 nM | TGI (CAKI-1 renal): > 100000 nM | TGI (CCRF-CEM leukemia): 75.8 µM | TGI (COLO 205 colon): 32.9 µM | TGI (DLD-1 colon): 40.9 µM | TGI (DMS 114 small cell lung): 39.7 µM | TGI (DMS 273 small cell lung): 44.5 µM | TGI (EKVX NSCLC): > 100000 nM | TGI (HCC-2998 colon): > 100 µM | TGI (HCT-116 colon): 56.6 µM | TGI (HCT-15 colon): 56.1 µM | TGI (HL-60(TB) leukemia): 61.3 µM | TGI (HOP-18 NSCLC): > 100 µM | TGI (HOP-62 NSCLC): > 100000 nM | TGI (HOP-92 NSCLC): > 100000 nM | TGI (HT29 colon): > 100000 nM | TGI (IGROV1 ovarian): > 100000 nM | TGI (K-562 leukemia): > 100 µM | TGI (KM12 colon): > 100 µM | TGI (KM20L2 colon): > 100000 nM | TGI (LOX IMVI melanoma): 41.2 µM | TGI (LXFL 529 NSCLC): 95.2 µM | TGI (M14 melanoma): 85.9 µM | TGI (M19-MEL melanoma): 83.7 µM | TGI (MALME-3M melanoma): > 100000 nM | TGI (MOLT-4 leukemia): > 100 µM | TGI (NCI-H226 lung): > 100 µM | TGI (NCI-H23 lung): > 100000 nM | TGI (NCI-H460 lung): > 100000 nM | TGI (NCI-H522 lung): 23.3 µM | TGI (OVCAR-3 ovarian): 86.2 µM | TGI (OVCAR-4 ovarian): > 100000 nM | TGI (OVCAR-5 ovarian): > 100 µM | TGI (OVCAR-8 ovarian): 50.1 µM | TGI (RXF 393 renal): > 100000 nM | TGI (RXF-631 renal): > 100 µM | TGI (SF-268 CNS): > 100 µM | TGI (SF-295 CNS): > 100000 nM | TGI (SF-539 CNS): 79.3 µM | TGI (SK-MEL-2 melanoma): > 100000 nM | TGI (SK-MEL-28 melanoma): > 100000 nM | TGI (SK-MEL-5 melanoma): > 100000 nM | TGI (SK-OV-3 ovarian): > 100 µM | TGI (SN12C renal): 64.7 µM | TGI (SNB-19 CNS): > 100 µM | TGI (SNB-75 CNS): > 100000 nM | TGI (SNB-78 CNS): > 100000 nM | TGI (TK-10 renal): > 100000 nM | TGI (U251 CNS): > 100000 nM | TGI (UACC-257 melanoma): > 100000 nM | TGI (UACC-62 melanoma): > 100000 nM | TGI (UO-31 renal): > 100000 nM | TGI (XF 498 CNS): > 100000 nM
